Measurements published in ChEMBL document CHEMBL5385908, “Screening Ultra-Large Encoded Compound Libraries Leads to Novel Protein-Ligand Interactions and High Selectivity” (J Med Chem, 2024).
Each block holds one compound with its values, some of them ahead of it.

Tests used:
[1] = biological target: T1, Proteinase-activated receptor 2 (Homo sapiens, UniProt P55085); assay: Antagonist activity at PAR2 (unknown origin)
T1 sequence (P55085 whole entry): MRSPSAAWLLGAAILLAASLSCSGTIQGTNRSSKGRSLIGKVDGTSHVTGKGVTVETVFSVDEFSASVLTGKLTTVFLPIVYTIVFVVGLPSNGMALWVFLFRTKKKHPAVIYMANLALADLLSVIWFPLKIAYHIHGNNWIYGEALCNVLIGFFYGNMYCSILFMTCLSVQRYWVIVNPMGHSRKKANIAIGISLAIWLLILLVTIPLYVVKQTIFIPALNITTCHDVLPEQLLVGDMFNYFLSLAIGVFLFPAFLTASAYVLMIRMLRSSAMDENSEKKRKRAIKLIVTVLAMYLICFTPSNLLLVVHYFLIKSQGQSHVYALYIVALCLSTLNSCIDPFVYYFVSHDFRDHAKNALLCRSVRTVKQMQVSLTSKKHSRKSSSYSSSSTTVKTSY

[2] = biological target: T2, Protein-arginine deiminase type-4 (Homo sapiens, UniProt Q9UM07); assay: Inhibition of N-terminal GST-tagged PAD4 (unknown origin) expressed in Escherichia coli incubated for 1 hr by spectrophotometric method
T2 sequence (Q9UM07 whole entry, the tested form may be a part): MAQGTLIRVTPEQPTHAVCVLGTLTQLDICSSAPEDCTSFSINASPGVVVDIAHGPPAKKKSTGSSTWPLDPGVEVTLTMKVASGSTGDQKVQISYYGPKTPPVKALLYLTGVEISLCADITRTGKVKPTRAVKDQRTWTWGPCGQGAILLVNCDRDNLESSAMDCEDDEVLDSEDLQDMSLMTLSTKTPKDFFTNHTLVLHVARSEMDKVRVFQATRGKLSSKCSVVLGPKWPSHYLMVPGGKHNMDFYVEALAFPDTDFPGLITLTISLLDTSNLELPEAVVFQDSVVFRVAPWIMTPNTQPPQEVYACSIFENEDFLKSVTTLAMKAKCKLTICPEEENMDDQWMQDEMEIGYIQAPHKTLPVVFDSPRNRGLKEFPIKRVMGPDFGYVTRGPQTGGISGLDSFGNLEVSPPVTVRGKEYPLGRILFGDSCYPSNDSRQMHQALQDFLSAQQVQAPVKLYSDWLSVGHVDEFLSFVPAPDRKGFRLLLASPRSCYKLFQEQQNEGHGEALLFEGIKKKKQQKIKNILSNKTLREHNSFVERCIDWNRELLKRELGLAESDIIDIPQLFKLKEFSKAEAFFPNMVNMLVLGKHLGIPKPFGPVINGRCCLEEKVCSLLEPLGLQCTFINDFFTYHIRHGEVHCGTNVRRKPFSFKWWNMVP

Protein phosphatase 1D = biological target: T3, Protein phosphatase 1D (Homo sapiens, UniProt O15297); assay: Inhibition of N-terminal FLAG-His8-tagged human Wip1 (2 to 420 residues) expressed in bac-to-bac baculovirus expression system infected Sf9 cells
T3 sequence (O15297 whole entry): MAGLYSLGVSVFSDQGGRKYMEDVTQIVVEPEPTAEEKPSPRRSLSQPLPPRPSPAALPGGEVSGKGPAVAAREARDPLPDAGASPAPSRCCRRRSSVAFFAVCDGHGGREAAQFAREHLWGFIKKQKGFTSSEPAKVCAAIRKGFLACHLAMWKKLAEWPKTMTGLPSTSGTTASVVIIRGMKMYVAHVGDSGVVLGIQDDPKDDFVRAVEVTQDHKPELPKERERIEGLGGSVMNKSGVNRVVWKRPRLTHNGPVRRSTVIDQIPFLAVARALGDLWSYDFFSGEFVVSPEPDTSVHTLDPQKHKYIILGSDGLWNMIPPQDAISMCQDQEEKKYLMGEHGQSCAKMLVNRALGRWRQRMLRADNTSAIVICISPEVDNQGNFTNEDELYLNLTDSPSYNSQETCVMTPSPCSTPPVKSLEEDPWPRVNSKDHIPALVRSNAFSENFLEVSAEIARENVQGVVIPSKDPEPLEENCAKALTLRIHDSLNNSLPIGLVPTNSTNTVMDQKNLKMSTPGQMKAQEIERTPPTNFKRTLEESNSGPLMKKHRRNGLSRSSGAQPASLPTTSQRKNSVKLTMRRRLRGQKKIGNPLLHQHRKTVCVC

[3] = biological target: T4, Tyrosine-protein kinase Mer (Homo sapiens, UniProt Q12866); assay: Inhibition of N-terminal His6-tagged human MerTk
T4 sequence (Q12866 whole entry): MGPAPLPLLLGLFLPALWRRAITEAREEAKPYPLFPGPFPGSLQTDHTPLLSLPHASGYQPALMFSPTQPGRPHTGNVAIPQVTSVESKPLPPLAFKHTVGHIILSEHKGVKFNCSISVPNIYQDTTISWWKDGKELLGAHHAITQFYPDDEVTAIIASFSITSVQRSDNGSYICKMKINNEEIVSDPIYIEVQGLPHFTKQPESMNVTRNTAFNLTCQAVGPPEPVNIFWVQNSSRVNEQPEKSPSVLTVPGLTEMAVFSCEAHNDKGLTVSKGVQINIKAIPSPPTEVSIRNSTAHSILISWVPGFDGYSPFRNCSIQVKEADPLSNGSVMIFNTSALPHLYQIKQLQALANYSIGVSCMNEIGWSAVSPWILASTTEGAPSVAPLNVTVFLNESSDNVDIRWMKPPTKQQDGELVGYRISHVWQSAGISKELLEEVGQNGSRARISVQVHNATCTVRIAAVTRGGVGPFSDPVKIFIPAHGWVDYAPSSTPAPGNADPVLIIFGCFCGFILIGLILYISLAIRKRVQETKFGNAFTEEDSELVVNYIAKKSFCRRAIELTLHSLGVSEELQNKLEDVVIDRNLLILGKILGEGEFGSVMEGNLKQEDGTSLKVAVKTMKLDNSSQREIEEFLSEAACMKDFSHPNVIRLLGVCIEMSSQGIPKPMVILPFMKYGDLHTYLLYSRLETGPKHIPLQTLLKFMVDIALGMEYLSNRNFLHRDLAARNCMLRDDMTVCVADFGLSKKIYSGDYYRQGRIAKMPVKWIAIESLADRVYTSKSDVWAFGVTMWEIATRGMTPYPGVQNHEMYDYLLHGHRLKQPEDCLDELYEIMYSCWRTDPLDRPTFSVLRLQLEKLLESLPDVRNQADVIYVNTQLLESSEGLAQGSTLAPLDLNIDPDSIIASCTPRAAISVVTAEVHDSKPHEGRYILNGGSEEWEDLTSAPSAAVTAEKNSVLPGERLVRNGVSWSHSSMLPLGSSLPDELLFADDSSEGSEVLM

[4] = biological target: T5, Tyrosine-protein kinase receptor UFO (Homo sapiens, UniProt P30530); assay: Inhibition of AXL (unknown origin) by FRET assay
T5 sequence (P30530 whole entry): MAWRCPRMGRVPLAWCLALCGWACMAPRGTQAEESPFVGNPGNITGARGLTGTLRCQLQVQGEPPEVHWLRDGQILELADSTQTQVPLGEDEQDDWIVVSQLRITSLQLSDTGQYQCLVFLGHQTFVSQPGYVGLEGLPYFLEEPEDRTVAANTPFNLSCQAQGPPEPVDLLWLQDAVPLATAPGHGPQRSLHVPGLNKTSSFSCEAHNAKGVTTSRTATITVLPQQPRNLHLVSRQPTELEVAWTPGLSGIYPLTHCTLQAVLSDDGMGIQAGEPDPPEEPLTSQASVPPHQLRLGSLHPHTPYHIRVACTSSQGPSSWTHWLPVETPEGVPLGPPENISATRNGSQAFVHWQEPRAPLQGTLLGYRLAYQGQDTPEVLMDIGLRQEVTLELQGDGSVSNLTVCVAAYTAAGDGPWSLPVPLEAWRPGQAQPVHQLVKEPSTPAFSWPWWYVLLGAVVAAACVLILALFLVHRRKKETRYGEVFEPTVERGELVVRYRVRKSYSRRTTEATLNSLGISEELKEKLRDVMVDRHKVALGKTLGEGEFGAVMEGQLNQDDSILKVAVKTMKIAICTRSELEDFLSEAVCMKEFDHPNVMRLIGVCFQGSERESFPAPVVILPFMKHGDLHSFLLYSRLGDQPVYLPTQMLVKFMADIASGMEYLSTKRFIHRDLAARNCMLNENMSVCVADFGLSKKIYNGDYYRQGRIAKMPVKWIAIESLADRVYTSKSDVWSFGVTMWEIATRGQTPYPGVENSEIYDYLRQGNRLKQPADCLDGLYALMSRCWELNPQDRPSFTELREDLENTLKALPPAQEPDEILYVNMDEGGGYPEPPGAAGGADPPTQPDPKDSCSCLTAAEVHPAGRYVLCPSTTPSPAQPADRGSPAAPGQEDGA

[5] = biological target: T6, Receptor-type tyrosine-protein kinase FLT3 (Homo sapiens, UniProt P36888); assay: Inhibition of wild type FLT3 (unknown origin)
T6 sequence (P36888 whole entry): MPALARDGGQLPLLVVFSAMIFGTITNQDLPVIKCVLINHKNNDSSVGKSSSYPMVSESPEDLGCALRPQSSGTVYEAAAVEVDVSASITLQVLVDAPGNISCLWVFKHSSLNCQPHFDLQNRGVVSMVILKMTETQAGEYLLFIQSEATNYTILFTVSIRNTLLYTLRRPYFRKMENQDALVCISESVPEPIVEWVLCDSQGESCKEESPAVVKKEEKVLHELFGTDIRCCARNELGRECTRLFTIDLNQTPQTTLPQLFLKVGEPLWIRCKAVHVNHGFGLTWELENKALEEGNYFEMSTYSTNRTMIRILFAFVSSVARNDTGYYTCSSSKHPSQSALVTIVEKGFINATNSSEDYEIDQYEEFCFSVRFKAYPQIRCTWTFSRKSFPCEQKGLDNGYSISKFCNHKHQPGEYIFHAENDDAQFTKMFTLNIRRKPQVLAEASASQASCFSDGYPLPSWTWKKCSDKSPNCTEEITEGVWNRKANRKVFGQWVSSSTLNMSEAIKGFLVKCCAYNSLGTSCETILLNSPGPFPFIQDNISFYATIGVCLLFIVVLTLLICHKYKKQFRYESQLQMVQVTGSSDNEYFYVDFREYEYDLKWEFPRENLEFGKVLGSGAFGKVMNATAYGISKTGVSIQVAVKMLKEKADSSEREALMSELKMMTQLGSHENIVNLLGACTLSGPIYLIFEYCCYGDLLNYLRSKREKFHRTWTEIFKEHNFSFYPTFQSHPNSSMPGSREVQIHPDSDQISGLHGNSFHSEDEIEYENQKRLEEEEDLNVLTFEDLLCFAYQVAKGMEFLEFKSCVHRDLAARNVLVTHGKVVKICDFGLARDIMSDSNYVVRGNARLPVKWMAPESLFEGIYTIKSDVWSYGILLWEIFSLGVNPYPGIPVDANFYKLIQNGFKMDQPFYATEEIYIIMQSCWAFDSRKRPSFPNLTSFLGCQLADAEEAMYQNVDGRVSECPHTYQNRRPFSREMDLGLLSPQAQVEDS

[6] = biological target: T2, Protein-arginine deiminase type-4; assay: Inhibition of N-terminal GST-tagged PAD4 (unknown origin) expressed in Escherichia coli BL21 (DE3) measured after 1 hr by colorimetric assay
[7] = biological target: T1, Proteinase-activated receptor 2; assay: Binding affinity to PAR2 (unknown origin) assessed as inhibition constant
[8] = biological target: T7, ATPase family AAA domain-containing protein 2 (Homo sapiens, UniProt Q6PL18); assay: Inhibition of N-terminal Hexahistidine-GST-tagged human ATAD2 bromodomain expressed in Escherichia coli BL21 (DE3) Rosetta cells incubated for 1 hr by FRET analysis
T7 sequence (Q6PL18 whole entry): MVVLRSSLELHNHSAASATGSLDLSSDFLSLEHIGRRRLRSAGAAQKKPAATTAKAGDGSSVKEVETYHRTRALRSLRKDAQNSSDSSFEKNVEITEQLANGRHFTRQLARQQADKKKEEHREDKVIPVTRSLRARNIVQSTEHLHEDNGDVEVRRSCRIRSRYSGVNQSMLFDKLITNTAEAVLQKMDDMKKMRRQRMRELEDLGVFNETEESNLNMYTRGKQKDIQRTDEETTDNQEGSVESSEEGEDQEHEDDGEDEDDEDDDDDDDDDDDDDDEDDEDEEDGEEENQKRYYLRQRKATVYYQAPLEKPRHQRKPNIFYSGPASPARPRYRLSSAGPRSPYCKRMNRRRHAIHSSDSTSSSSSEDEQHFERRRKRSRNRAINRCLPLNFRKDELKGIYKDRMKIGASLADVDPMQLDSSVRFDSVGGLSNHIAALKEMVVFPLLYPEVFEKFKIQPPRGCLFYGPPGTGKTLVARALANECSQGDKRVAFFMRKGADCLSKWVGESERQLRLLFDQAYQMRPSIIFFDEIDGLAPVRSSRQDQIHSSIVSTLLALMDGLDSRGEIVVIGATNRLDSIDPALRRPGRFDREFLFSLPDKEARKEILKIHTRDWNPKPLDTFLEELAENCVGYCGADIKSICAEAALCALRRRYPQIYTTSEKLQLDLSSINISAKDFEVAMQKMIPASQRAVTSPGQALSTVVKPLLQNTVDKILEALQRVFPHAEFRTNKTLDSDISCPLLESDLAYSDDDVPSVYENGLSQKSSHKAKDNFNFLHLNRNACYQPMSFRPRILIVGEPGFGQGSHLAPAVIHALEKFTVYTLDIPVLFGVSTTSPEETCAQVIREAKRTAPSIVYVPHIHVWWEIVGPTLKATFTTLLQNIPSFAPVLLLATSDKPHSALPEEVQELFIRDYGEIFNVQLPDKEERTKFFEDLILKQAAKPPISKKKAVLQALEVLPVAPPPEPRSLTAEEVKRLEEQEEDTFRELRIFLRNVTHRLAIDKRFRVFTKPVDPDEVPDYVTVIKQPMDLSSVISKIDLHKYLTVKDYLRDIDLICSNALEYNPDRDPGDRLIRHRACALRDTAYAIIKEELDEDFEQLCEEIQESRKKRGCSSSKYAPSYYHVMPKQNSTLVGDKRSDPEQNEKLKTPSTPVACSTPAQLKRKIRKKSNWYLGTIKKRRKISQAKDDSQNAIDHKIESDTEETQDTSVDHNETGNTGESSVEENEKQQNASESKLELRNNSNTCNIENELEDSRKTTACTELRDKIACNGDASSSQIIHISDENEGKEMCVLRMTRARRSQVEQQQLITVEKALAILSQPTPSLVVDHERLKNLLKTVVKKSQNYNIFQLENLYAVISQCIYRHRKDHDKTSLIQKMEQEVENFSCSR

IC50 [1]: 90 nM
Compound: C[C@@H](c1ccccc1)n1c(-c2cc3c(cc2Br)OCO3)nc2cc(C(=O)Nc3ccccc3)ccc21

IC50 [1]: 23 nM
Compound: C[C@@H](C1CCCCC1)n1c(-c2cc3c(cc2Br)OCO3)nc2cc(C(=O)Nc3ccc(C#N)cc3)ccc21

IC50 [2]: 3200 nM
Compound: Cn1c(-c2cc3cc(C(=O)N4CCCC(N)C4)ccc3n2N)cc2ccccc21 (stereo not given)

IC50 (Protein phosphatase 1D): 13 nM
Compound: COCCNC(=O)[C@H](CC1CCCCC1)NC(=O)c1ccc(CNc2cccc(Cl)c2)s1

IC50 [3]: 5 nM | IC50 [4]: 400 nM | IC50 [5]: 15800 nM
Compound: CN(Cc1ccc2nccn2c1)c1ccc(-c2ccc(-c3ccccc3Cl)cc2)o1

IC50 [2]: 200 nM | IC50 [6]: 200 nM
Compound: COc1cc(C(=O)N2CCC[C@@H](N)C2)cc2cc(-c3cc4cccnc4n3C)n(N)c12

IC50 [3]: 5 nM | IC50 [4]: 16 nM | IC50 [5]: > 100000 nM
Compound: CNC(=O)C[C@@H](NC(=O)[C@@H](Cc1ccccc1)NC(=O)c1c(C)noc1-c1snnc1C)c1ccc(C(F)(F)F)cc1

Ki [7]: 670 nM
Compound: NCCCC[C@H](NC(=O)CNC(=O)Nc1ccc2c(c1)c(CN1CCCC1)cn2Cc1c(Cl)cccc1Cl)C(=O)N[C@@H](Cc1ccccc1)C(=O)NC(c1ccccc1)c1ccccc1

IC50 [8]: 22 nM
Compound: CNC(=O)[C@@H](Cc1ccc([N+](=O)[O-])cc1)NC(=O)c1cc(-c2ccc(CN[C@H](C)c3ccc(C)cc3)o2)ccc1Cl

IC50 [8]: 22 nM
Compound: COc1cc(Cl)c(C(=O)N[C@@H](CN[C@H]2CC[C@@H](N)CC2)Cc2ccc(C#N)cc2)cc1-c1ccc(CN[C@H](C)c2ccc(C)cc2)o1
